Experimental data as given in ChEMBL document CHEMBL5518164, “Membrane-permeable tenofovir-di- and monophosphate analogues” (Eur J Med Chem, 2024).
Activity calls are given as the source filed them. The calls are words filed in the database; no cut-off is given here.

Experiments:
[1] = Half life of the compound in heparin-stabilized human plasma by HPLC analysis; format: ADME, cell-free
[2] = Half life of the compound in citrate-containing human plasma by HPLC analysis; format: ADME, cell-free
[3] = Half life of the compound in phosphate buffer saline at pH 7.3 by RP18-HPLC analysis; format: ADME
[4] = test system: Human immunodeficiency virus 2; assay: Antiviral activity against HIV-2 ROD infected in thymidine kinase deficient human CEM cells assessed as inhibition of virus-induced giant cell formation incubated for 4 to 5 days by light microscopy; format: functional, organism-based; conditions: Human immunodeficiency virus 2, ROD, CCRF-CEM
[5] = Cytotoxicity against human CEM cells assessed as inhibition of cell proliferation; format: toxicity, cell-based, CCRF-CEM
[6] = Selectivity index, ratio of CC50 for cytotoxicity against human CEM cells to EC50 for antiviral activity against HIV-2 ROD infected in thymidine kinase deficient human CEM cells; format: toxicity, cell-based; conditions: read-out: Ratio CC50/EC50
[7] = Lipophilicity of the compound assessed as retention time by RP-HPLC analysis; format: physicochemical
[8] = test system: Human immunodeficiency virus 1; assay: Antiviral activity against HIV-1 HE infected in wild type human CEM/0 cells assessed as inhibition of virus-induced giant cell formation incubated for 4 to 5 days by light microscopy; format: functional, organism-based; conditions: Human immunodeficiency virus 1, HE, CCRF-CEM
[9] = Half life of the compound in human CEM/0 cell extracts by RP18-HPLC analysis; format: ADME, CCRF-CEM
[10] = test system: Human immunodeficiency virus 2; assay: Antiviral activity against HIV-2 ROD infected in wild type human CEM/0 cells assessed as inhibition of virus-induced giant cell formation incubated for 4 to 5 days by light microscopy; format: functional, organism-based; conditions: Human immunodeficiency virus 2, ROD, CCRF-CEM
[11] = Half life of the compound in phosphate buffer saline in presence of pig liver esterase at pH 7.3 by RP18-HPLC analysis; format: ADME, Sus scrofa
[12] = target: T1, DNA polymerase subunit gamma-1 (Homo sapiens) (UniProt P54098); assay: Substrate activity at human DNA polymerase gamma assessed as elongation of primer at 250 uM incubated for 120 mins in presence of primer/template mixture by primer extension assay based fluorescence analysis
T1 sequence (whole entry): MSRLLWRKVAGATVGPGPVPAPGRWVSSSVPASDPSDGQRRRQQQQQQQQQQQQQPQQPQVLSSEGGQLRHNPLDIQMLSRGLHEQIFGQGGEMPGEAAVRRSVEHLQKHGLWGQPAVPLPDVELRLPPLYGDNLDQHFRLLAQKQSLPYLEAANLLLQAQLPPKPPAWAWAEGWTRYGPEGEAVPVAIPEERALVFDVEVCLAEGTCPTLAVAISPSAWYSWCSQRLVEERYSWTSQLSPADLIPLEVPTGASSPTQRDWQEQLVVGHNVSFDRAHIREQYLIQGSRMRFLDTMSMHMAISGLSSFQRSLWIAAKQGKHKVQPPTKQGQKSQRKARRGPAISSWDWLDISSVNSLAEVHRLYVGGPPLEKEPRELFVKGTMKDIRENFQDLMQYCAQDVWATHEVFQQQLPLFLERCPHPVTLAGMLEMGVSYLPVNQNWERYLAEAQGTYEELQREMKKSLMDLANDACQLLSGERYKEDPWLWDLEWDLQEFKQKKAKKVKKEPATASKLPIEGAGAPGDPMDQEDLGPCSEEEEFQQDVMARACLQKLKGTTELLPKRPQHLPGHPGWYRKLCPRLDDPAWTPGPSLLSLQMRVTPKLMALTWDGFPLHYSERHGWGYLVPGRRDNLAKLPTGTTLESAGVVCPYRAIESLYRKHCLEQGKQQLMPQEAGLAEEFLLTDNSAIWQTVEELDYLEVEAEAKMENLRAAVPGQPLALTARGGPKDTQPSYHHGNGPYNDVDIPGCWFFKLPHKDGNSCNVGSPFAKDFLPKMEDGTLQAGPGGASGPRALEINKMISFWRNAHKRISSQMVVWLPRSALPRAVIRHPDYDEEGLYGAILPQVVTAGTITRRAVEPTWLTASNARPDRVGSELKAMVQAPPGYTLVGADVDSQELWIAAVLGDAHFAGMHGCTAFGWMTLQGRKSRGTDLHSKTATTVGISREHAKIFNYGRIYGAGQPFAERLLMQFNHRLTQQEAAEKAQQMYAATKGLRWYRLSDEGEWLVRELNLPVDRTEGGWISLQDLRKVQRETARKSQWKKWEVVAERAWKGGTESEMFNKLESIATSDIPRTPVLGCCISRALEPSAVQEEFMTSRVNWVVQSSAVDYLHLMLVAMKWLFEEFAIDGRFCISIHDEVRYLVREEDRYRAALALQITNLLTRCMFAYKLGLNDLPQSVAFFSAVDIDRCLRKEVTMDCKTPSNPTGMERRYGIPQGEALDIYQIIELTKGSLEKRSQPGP

[13] = test system: Human immunodeficiency virus; assay: Substrate activity at HIV reverse transcriptase assessed as elongation of primer at 250 uM incubated for 30 mins in presence of primer/template mixture and dNTPs by primer extension assay based fluorescence analysis
[14] = test system: Human immunodeficiency virus; assay: Substrate activity at HIV reverse transcriptase assessed as elongation of primer at 250 uM incubated for 30 mins in presence of primer/template mixture by primer extension assay based fluorescence analysis
[15] = Prodrug conversion of the compound in phosphate buffer saline assessed as (R)-9-(2-(phosphonomethoxy)propyl)adenine formation by measuring half life at pH 7.3 by RP18-HPLC analysis; format: ADME
[16] = Drug hydrolysis in phosphate buffer saline incubated for 500 hrs at pH 7.3 by RP18-HPLC analysis; format: physicochemical; conditions: read-out: Drug degradation
[17] = Drug hydrolysis in phosphate buffer saline incubated for 600 hrs at pH 7.3 by RP18-HPLC analysis; format: physicochemical; conditions: read-out: Drug degradation
[18] = test system: Human immunodeficiency virus; assay: Substrate activity at HIV reverse transcriptase assessed as n+1 band formation incubated for 30 mins in presence of primer/template mixture and dNTPs by primer extension assay based fluorescence analysis
[19] = test system: Human immunodeficiency virus; assay: Substrate activity at HIV reverse transcriptase assessed as n+1 band formation incubated for 30 mins in presence of primer/template mixture and 2.6 fold excess of dNTPs by primer extension assay based fluorescence analysis
[20] = test system: Human immunodeficiency virus; assay: Inhibition of HIV reverse transcriptase assessed as inhibition of elongation of primer at 25000 uM incubated for 30 mins in presence of primer/template mixture and dNTPs by primer extension assay based fluorescence analysis
[21] = test system: Human immunodeficiency virus; assay: Inhibition of HIV reverse transcriptase assessed as inhibition of elongation of primer at 25000 uM incubated for 30 mins in presence of primer/template mixture and 250 uM dNTPs by primer extension assay based fluorescence analysis
[22] = test system: Human immunodeficiency virus; assay: Substrate activity at HIV reverse transcriptase assessed as full elongation of primer by measuring n+5 band formation incubated for 30 mins in presence of primer/template mixture and dNTPs by primer extension assay based fluorescence analysis
[23] = target: T1, DNA polymerase subunit gamma-1 (Homo sapiens); assay: Substrate activity at human DNA polymerase gamma assessed as elongation of primer at 250 uM incubated for 120 mins in presence of primer/template mixture and dNTPs by primer extension assay based fluorescence analysis
[24] = test system: Human immunodeficiency virus; assay: Substrate activity at HIV reverse transcriptase assessed as n+1 band formation incubated for 30 mins in presence of primer/template mixture by primer extension assay based fluorescence analysis
[25] = Prodrug conversion of the compound in phosphate buffer saline assessed as (R)-9-(2-(phosphonomethoxy)propyl)adenine formation by measuring half life in presence of pig liver esterase at pH 7.3 by RP18-HPLC analysis; format: ADME, Sus scrofa

| half-life [3] [h] | EC50 [4] [µM] | Retention_time [7] [min] | EC50 [8] [µM] | half-life [9] [h] | EC50 [10] [µM] | Compound | CC50 [5] [µM] | selectivity ratio [6] | other results |
| --- | --- | --- | --- | --- | --- | --- | --- | --- | --- |
|  |  |  |  |  |  | CC(C)OC(=O)[C@H](C)N[P@](=O)(CO[C@H](C)Cn1cnc2c(N)ncnc21)Oc1ccccc1.CC(C)OC(=O)[C@H](C)N[P@](=O)(CO[C@H](C)Cn1cnc2c(N)ncnc21)Oc1ccccc1.O=C(O)/C=C/C(=O)O [TENOFOVIR ALAFENAMIDE FUMARATE] |  |  | half-life [1]: 1.5 h; half-life [2]: 1.5 h |
| 207 | 0.1 | 16.6 | 0.16 | > 8 | 0.05 | CCCCCCCCCCCCCCCCCCOP(=O)(OCCCCCCCC)OP(=O)(O)OP(=O)(O)CO[C@H](C)Cn1cnc2c(N)ncnc21 (stereo partly specified) | 44.7 | 447 |  |
| 220 | 0.065 | 15.6 | 0.061 | > 20 | 0.035 | CCCCCCCCCCCCOP(=O)(OCCCCCCCCCCCC)OP(=O)(O)OP(=O)(O)CO[C@H](C)Cn1cnc2c(N)ncnc21 | 44.7 | 688 | half-life [11]: > 100 h |
| > 1000 | 2.54 | 9.7 | 4.27 |  | 1.22 | CCCCOP(=O)(OCCCC)OP(=O)(O)OP(=O)(O)CO[C@H](C)Cn1cnc2c(N)ncnc21 | > 100 | > 39 |  |
|  |  |  |  |  |  | C[C@H](Cn1cnc2c(N)ncnc21)OCP(=O)(O)OP(=O)(O)O |  |  | Activity [12]: inactive; Activity [13]: Active; Activity [14]: Active |
| > 1000 | 0.88 | 6.6 | 2.08 |  | 1.76 | C[C@H](Cn1cnc2c(N)ncnc21)OCP(=O)(O)O [TENOFOVIR ANHYDROUS] | > 100 | > 113 | Activity [12]: inactive; Activity [13]: Active; Activity [14]: inactive |
|  | 0.067 | 16.8 | 0.39 | 2.6 | 0.12 | CCCCCCCCCCCCCCCCCCOP(=O)(OCc1ccc(OC(=O)CC)cc1)OP(=O)(O)OP(=O)(O)CO[C@H](C)Cn1cnc2c(N)ncnc21 (stereo partly specified) | 51.1 | 762 | t1/2 [15]: 72 h |
|  | 0.39 | 18.1 | 6.96 | 1.9 | 10.3 | CCCCCCCCCCCCCCCCCCOP(=O)(OCc1ccc(OC(=O)CCCCCC)cc1)OP(=O)(O)OP(=O)(O)CO[C@H](C)Cn1cnc2c(N)ncnc21 (stereo partly specified) | > 100 | > 256 | t1/2 [15]: 111 h |
| > 500 | 0.055 | 16.3 | 0.64 | > 8 | 0.14 | CCCCCCCCCCCCCCCCCCP(=O)(OCCCCCCCC)OP(=O)(O)OP(=O)(O)CO[C@H](C)Cn1cnc2c(N)ncnc21 (stereo partly specified) | 48.5 | 882 | degraded at 500 h [16]: 36%; degraded at 600 h [17]: 43% |
|  | 4.62 | 12.5 | 5.27 |  | 5.55 | CCCCCCCCCCCOP(=O)(O)OP(=O)(O)OP(=O)(O)CO[C@H](C)Cn1cnc2c(N)ncnc21 | > 100 | > 21 | Activity [12]: inactive; Activity [18]: inactive; Activity [19]: Active; inhibition [20]: Active; inhibition [21]: Active; Activity [22]: Active; Activity [23]: Active; Activity [24]: Active |
|  | 0.31 | 19.1 | 0.45 | 3.5 | 0.77 | CCCCCCCCCCCCCCCCCCOP(=O)(OCc1ccc(OC(=O)CCCCCCCC)cc1)OP(=O)(O)OP(=O)(O)CO[C@H](C)Cn1cnc2c(N)ncnc21 (stereo partly specified) | > 100 | > 322 | t1/2 [15]: 24 h; t1/2 [25]: 2.15 h |
| 26.5 | 0.022 | 20.1 | 0.073 | > 8 | 0.032 | CCCCCCCCCCCCCCCCCCP(=O)(OCCCCCCCC)OP(=O)(O)CO[C@H](C)Cn1cnc2c(N)ncnc21 (stereo partly specified) | 45.2 | 2050 |  |
|  | 0.54 |  | 1.23 |  | 0.62 | CCCCCCCCCCCOP(=O)(OCc1ccc(OC(=O)CCCCCCCC)cc1)OP(=O)(O)OP(=O)(O)CO[C@H](C)Cn1cnc2c(N)ncnc21 (stereo partly specified) | > 100 | > 185 |  |
|  |  |  |  |  |  | Nc1ncnc2c1ncn2[C@H]1C[C@H](O)[C@@H](COP(=O)(O)OP(=O)(O)OP(=O)(O)O)O1 |  |  | Activity [18]: Active |

| Compound | half-life [3] [h] | EC50 [4] [µM] | Retention_time [7] [min] | EC50 [8] [µM] | half-life [9] [h] | EC50 [10] [µM] | CC50 [5] [µM] | selectivity ratio [6] | other results |
| --- | --- | --- | --- | --- | --- | --- | --- | --- | --- |
| CCCCCCCCCCCC(=O)Oc1ccc(COOP(=O)(O)OP(=O)(O)OP(=O)(O)CO[C@H](C)Cn2cnc3c(N)ncnc32)cc1 |  | 0.3 |  | 0.46 |  | 0.23 | > 100 | > 333 |  |
| CC(C)OC(=O)OCOP(=O)(CO[C@H](C)Cn1cnc2c(N)ncnc21)OCOC(=O)OC(C)C.O=C(O)/C=C/C(=O)O [TENOFOVIR DISOPROXIL FUMARATE] | 27.8 | 0.003 | 10.1 | 0.013 |  | 0.003 | > 5 | > 1430 | half-life [1]: 0.167 h; half-life [2]: 0.167 h |
